Activity calls are given as the source filed them. No cut-off for these calls is given here.
What was measured:
[1] = biological target: Programmed cell death 1 ligand 1 (Homo sapiens, UniProt Q9NZQ7); assay: Binding affinity to human PD-L1 expressed in Escherichia coli strain BL21 assessed as dissociation constant by NMR spectroscopic analysis
[2] = biological target: Programmed cell death protein 1/Programmed cell death 1 ligand 1 (Homo sapiens) (UniProt Q15116+Q9NZQ7); assay: Inhibition of PD-1/PD-L1 interaction in human PBMC cells assessed as increase in IFN-gamma secretion at 4 uM incubated for 48 hrs in presence of PD-L1 protein by ELISA assay; type: cell-based
PBMC = assay: Cytotoxicity against human PBMC cells assessed as reduction in cell viability at 1 to 4 uM measured after 48 hrs by CCK-8 assay; type: toxicity, cell-based; settings: dose 1-4 µM
[3] = AUC (0 to t) in Sprague-Dawley rat at 40 mg/kg, IG measured upto 48 hrs by LC-MS/MS analysis; type: ADME, organism-based; design: dose 40 mg/kg, time < 48 hrs, route ig; settings: in vivo, po
[4] = AUC (0 to infinity) in Sprague-Dawley rat at 40 mg/kg, IG measured upto 48 hrs by LC-MS/MS analysis; type: ADME, organism-based; design: time < 48 hrs, dose 40 mg/kg, route ig; settings: Sprague-Dawley, in vivo, po
[5] = AUC (0 to infinity) in Sprague-Dawley rat at 10 mg/kg, ip measured upto 48 hrs by LC-MS/MS analysis; type: ADME, organism-based; design: time < 48 hrs, dose 10 mg/kg, route ip; settings: in vivo
[6] = Cmax in Sprague-Dawley rat at 8 mg/kg, iv measured upto 48 hrs by LC-MS/MS analysis; type: ADME, organism-based; design: time < 48 hrs, dose 8 mg/kg, route iv; settings: in vivo
[7] = Tmax in Sprague-Dawley rat at 8 mg/kg, iv measured upto 48 hrs by LC-MS/MS analysis; type: ADME, organism-based; settings: in vivo
[8] = Tmax in Sprague-Dawley rat at 40 mg/kg, IG measured upto 48 hrs by LC-MS/MS analysis; type: ADME, organism-based; settings: in vivo, po
[9] = Tmax in Sprague-Dawley rat at 10 mg/kg, ip measured upto 48 hrs by LC-MS/MS analysis; type: ADME, organism-based; settings: in vivo
[10] = Half life in Sprague-Dawley rat at 8 mg/kg, iv measured upto 48 hrs by LC-MS/MS analysis; type: ADME, organism-based; settings: Sprague-Dawley, in vivo
[11] = Half life in Sprague-Dawley rat at 10 mg/kg, ip measured upto 48 hrs by LC-MS/MS analysis; type: ADME, organism-based; settings: in vivo
[12] = Apparent volume of distribution in Sprague-Dawley rat at 8 mg/kg, iv measured upto 48 hrs by LC-MS/MS analysis; type: ADME, organism-based; settings: Sprague-Dawley, in vivo, read-out: Vz
[13] = Clearance in Sprague-Dawley rat at 8 mg/kg, iv measured upto 48 hrs by LC-MS/MS analysis; type: ADME, organism-based; settings: Sprague-Dawley, in vivo
[14] = Clearance in Sprague-Dawley rat at 10 mg/kg, ip measured upto 48 hrs by LC-MS/MS analysis; type: ADME, organism-based; settings: in vivo
MC-38 [15] = assay: Antitumor activity against mouse MC38 cells implanted in PD-1/PD-L1 humanized C57/BL6 mouse assessed as tumor growth inhibition at 50 mg/kg, IG qd administered on day 5 measured after 2 weeks; type: functional; settings: MC-38, po, 336 h, read-out: TGI
[16] = Toxicity in PD-1/PD-L1 humanized C57/BL6 mouse implanted with mouse MC38 cells assessed as change in body weight at 50 mg/kg, IG qd administered on day 5 measured after 2 weeks; type: organism-based, MC-38; settings: in vivo, po, 336 h
[17] = Toxicity in PD-1/PD-L1 humanized C57/BL6 mouse implanted with mouse MC38 cells assessed as mortality at 50 mg/kg, IG qd administered on day 5 measured after 2 weeks; type: organism-based, MC-38; settings: in vivo, po, 336 h
MC-38 [18] = assay: Antitumor activity against mouse MC38 cells implanted in PD-1/PD-L1 humanized C57/BL6 mouse assessed as increase in CD3 positive CD8 positive T cells proportion in tumor at 50 mg/kg, IG qd administered on day 5 measured after 2 weeks by flow cytometry analysis (reference value: 51.8%); type: functional
MC-38 [19] = assay: Antitumor activity against mouse MC38 cells implanted in PD-1/PD-L1 humanized C57/BL6 mouse assessed as reduction in tumor growth at 50 mg/kg, IG qd administered on day 5 measured after 2 weeks; type: functional, organism-based
MC-38 [20] = assay: Immunomodulatory activity in mouse MC38 cells implanted in PD-1/PD-L1 humanized C57/BL6 mouse assessed as increase in CXCL9 mRNA expression level in tumor at 50 mg/kg, IG qd administered on day 5 measured after 2 weeks by RT-PCR analysis; type: functional, organism-based
MC-38 [21] = assay: Immunomodulatory activity in mouse MC38 cells implanted in PD-1/PD-L1 humanized C57/BL6 mouse assessed as increase in CXCL10 mRNA expression level in tumor at 50 mg/kg, IG qd administered on day 5 measured after 2 weeks by RT-PCR analysis; type: functional, organism-based
MC-38 [22] = assay: Immunomodulatory activity in mouse MC38 cells implanted in PD-1/PD-L1 humanized C57/BL6 mouse assessed as decrease in PD-L1 mRNA expression level in tumor at 50 mg/kg, IG qd administered on day 5 measured after 2 weeks by RT-PCR analysis; type: functional, organism-based
MC-38 [23] = assay: Antitumor activity against mouse MC38 cells implanted in PD-1/PD-L1 humanized C57/BL6 mouse assessed as increase in perforin levels at 50 mg/kg, IG qd administered on day 5 measured after 2 weeks by microscopic analysis; type: functional, organism-based
[24] = Toxicity in PD-1/PD-L1 humanized C57/BL6 mouse implanted with mouse MC38 cells assessed as morphological change in heart at 50 mg/kg, IG qd administered on day 5 measured after 2 weeks by hematoxylin-eosin staining based inverted fluorescent microscopic analysis; type: organism-based, MC-38; settings: in vivo, po, 336 h
[25] = Toxicity in PD-1/PD-L1 humanized C57/BL6 mouse implanted with mouse MC38 cells assessed as morphological change in spleen at 50 mg/kg, IG qd administered on day 5 measured after 2 weeks by hematoxylin-eosin staining based inverted fluorescent microscopic analysis; type: organism-based, MC-38; settings: in vivo, po, 336 h
[26] = Toxicity in PD-1/PD-L1 humanized C57/BL6 mouse implanted with mouse MC38 cells assessed as morphological change in lung at 50 mg/kg, IG qd administered on day 5 measured after 2 weeks by hematoxylin-eosin staining based inverted fluorescent microscopic analysis; type: organism-based, MC-38; settings: in vivo, po, 336 h
[27] = Toxicity in PD-1/PD-L1 humanized C57/BL6 mouse implanted with mouse MC38 cells assessed as morphological change in kidney at 50 mg/kg, IG qd administered on day 5 measured after 2 weeks by hematoxylin-eosin staining based inverted fluorescent microscopic analysis; type: organism-based, MC-38; settings: in vivo, po, 336 h
[28] = Nephrotoxicity in PD-1/PD-L1 humanized C57/BL6 mouse implanted with mouse MC38 cells assessed as effect on urea level in serum at 50 mg/kg, IG qd administered on day 5 measured after 2 weeks; type: toxicity, organism-based, MC-38; settings: in vivo, po, 336 h
[29] = Nephrotoxicity in PD-1/PD-L1 humanized C57/BL6 mouse implanted with mouse MC38 cells assessed as effect on creatinine level in serum at 50 mg/kg, IG qd administered on day 5 measured after 2 weeks; type: toxicity, organism-based, MC-38; settings: in vivo, po, 336 h
[30] = Hepatotoxicity in PD-1/PD-L1 humanized C57/BL6 mouse implanted with mouse MC38 cells assessed as effect on ALB level in serum at 50 mg/kg, IG qd administered on day 5 measured after 2 weeks; type: toxicity, organism-based, MC-38; settings: in vivo, po, 336 h

Programmed cell death 1 ligand 1, sequence (Q9NZQ7 whole entry): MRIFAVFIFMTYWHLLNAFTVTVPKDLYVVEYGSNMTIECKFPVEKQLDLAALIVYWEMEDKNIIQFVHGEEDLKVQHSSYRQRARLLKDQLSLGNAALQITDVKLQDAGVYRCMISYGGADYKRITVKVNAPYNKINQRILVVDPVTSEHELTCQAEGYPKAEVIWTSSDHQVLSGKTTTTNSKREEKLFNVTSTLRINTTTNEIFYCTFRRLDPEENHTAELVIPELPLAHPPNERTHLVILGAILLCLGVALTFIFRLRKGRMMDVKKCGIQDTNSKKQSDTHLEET

## N#Cc1cncc(COc2cc(OCc3cccc(-c4ccccc4F)c3Cl)ccc2CNCCO)c1
[1]
  Kd: < 1000 nM
[2]
  inhibition: Active
PBMC
  Activity: Non-Toxic
[3]
  AUC(0-t) at 48 h: 63600 ng·h/mL
[4]
  AUC(0-inf): 65500 ng·h/mL
[5]
  AUC(0-inf): 10500 ng·h/mL
[6]
  Cmax: 6230 ng/mL
[7]
  Tmax: 4.8 min
[8]
  Tmax: 105 min
[9]
  Tmax: 52.8 min
[10]
  half-life: 59.4 min
[11]
  half-life: 146 min
[12]
  Vd: 1.09 L/kg
[13]
  clearance: 10 mL/min/kg
[14]
  CL/F: 20.2 mL/min/kg
MC-38 [15]
  inhibition in vivo at 50 mg/kg: 55.2%
[16]
  Activity: Non-Toxic
[17]
  Activity: Non-Toxic
MC-38 [18]
  Activity: 67.4%
MC-38 [19]
  Activity: Active
MC-38 [20]
  Activity: Active
MC-38 [21]
  Activity: Active
MC-38 [22]
  Activity: Active
MC-38 [23]
  Activity: Active
[24]
  Activity: Non-Toxic
[25]
  Activity: Non-Toxic
[26]
  Activity: Non-Toxic
[27]
  Activity: Non-Toxic
[28]
  Activity: Non-Toxic
[29]
  Activity: Non-Toxic
[30]
  Activity: Non-Toxic
